# Experimental data reported in patent publication US8129371B2, “Thienopyrimidine and pyrazolopyrimidine compounds and their use as mTOR kinase and PI3 kinase inhibitors” (Wyeth LLC, priority 2007, dated 2012).
# Read-outs that look alike come from different tables or passages of the source.
# Experiments:
# prostate line LNCap = experiment: In vitro cell culture growth assay (MTS), LNCap; format: cell-based; settings: Homo sapiens, 72 h, LNCap cells, three days after drug treatment
# Summary of the method: (§1)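 Plate cells; add inhibitors on day 1; after 3 days' treatment, add MTS; read A490; express as percent growth of vehicle-treated control.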
# PI3K [1] = biological target: T1, PI3K (Homo sapiens, UniProt P42336); experiment: Fluorescence polarization assay for PI3K; format: biochemical
# T1 construct: PI3 Kinase α IC50; other: PI3 Kinase α; other: PI3 Kinase α isoform, fluorescence polarization
# T1 sequence (P42336 whole entry, canonical isoform): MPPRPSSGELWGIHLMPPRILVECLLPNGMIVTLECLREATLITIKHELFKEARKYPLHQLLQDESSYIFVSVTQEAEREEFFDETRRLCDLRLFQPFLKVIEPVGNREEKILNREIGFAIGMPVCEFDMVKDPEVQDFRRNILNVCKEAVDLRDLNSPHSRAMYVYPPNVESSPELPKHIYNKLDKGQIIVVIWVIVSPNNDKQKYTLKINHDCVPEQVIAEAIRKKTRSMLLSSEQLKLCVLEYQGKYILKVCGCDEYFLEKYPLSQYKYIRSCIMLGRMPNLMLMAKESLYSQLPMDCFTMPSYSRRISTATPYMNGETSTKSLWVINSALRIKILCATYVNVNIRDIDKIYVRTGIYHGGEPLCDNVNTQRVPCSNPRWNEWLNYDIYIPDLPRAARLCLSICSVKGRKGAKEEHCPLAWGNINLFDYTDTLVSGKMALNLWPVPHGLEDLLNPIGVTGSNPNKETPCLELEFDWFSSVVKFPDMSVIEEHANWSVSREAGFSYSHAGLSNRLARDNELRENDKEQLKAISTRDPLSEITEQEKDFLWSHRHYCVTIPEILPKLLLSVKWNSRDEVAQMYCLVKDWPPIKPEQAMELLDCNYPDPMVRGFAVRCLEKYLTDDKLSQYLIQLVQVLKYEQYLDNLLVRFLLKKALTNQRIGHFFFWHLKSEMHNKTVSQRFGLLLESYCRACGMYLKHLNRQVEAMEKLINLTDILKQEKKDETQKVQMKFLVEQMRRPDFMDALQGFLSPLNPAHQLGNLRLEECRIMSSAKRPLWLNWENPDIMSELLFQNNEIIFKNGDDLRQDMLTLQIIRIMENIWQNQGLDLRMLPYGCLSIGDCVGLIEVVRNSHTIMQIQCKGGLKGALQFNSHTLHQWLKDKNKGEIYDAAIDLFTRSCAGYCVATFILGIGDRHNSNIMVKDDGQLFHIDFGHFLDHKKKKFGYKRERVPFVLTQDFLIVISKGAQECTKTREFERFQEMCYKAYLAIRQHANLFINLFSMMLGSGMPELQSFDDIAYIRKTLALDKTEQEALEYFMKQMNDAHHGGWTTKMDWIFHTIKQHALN
# Summary of the method: (§2)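 PI3K was preincubated with compound (final DMSO 1%), and the reaction was started with PIP2/ATP substrate and run 30–60 min. It was stopped with a detector mix giving 10 nM red probe and 70 nM GST-GRP.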
# PI3K [2] = biological target: T2, PI3K (Homo sapiens, UniProt P48736); experiment: Fluorescence polarization assay for PI3K; format: biochemical
# T2 construct: PI3 Kinase γ IC50; other: PI3 Kinase γ; other: PI3 Kinase γ isoform, fluorescence polarization
# T2 sequence (P48736 whole entry, canonical isoform): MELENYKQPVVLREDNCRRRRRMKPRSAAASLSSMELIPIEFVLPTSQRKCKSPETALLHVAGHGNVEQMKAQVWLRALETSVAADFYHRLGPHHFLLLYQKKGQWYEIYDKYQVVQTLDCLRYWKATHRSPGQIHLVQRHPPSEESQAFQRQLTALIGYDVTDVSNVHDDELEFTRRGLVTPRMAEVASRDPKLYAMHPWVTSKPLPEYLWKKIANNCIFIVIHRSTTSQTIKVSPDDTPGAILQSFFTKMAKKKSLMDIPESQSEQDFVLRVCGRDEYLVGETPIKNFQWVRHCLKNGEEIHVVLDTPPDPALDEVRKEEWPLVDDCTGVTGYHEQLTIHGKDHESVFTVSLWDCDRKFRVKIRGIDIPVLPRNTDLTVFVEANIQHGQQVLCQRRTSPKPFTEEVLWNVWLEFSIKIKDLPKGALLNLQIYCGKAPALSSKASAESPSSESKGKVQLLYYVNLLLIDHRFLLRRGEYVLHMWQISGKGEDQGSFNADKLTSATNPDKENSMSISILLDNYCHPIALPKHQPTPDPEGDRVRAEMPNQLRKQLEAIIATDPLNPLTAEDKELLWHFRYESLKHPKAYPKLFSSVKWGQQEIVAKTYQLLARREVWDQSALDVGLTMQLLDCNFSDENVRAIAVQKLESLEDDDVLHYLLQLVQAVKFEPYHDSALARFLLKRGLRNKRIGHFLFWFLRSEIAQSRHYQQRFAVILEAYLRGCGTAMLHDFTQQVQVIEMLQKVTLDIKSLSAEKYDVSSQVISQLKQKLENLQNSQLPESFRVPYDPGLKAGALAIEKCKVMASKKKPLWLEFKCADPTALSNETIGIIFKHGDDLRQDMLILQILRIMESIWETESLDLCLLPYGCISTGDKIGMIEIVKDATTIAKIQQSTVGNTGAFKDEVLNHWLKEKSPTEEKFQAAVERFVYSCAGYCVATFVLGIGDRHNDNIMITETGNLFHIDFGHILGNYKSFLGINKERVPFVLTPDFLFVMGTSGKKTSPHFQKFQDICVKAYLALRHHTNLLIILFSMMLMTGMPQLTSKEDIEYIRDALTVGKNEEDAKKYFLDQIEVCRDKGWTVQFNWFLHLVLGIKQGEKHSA
# Summary of the method: as §2
# breast line MDA468 = experiment: In vitro cell culture growth assay (MTS), MDA468; format: cell-based; settings: Homo sapiens, 72 h, MDA468 cells, three days after drug treatment
# Summary of the method: as §1
# Human mTOR (FLAG-TOR) = biological target: T3, Human mTOR (FLAG-TOR) (Homo sapiens, UniProt P42345); experiment: Human mTOR kinase assay with purified enzyme, DELFIA format; format: biochemical
# T3 construct: FLAG
# Summary of the method: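 Purified FLAG-mTOR in HEPES pH 7.4 buffer with 10 mM MnCl2 was preincubated with inhibitor and reacted 2 h at room temperature with His6-S6K substrate, then stopped with EDTA/EGTA. Phospho-T389 S6K detected by DELFIA with Eu-labelled antibody (40 ng/mL) after plate capture; inhibition computed from signal.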
# [3] = PI3 Kinase α, read-out: PI3 Kinase α IC50
# [4] = PI3 Kinase γ, read-out: PI3 Kinase γ IC50
# [5] = PI3 Kinase α isoform, fluorescence polarization, read-out: PI3 Kinase α IC50
# [6] = PI3 Kinase γ isoform, fluorescence polarization, read-out: PI3 Kinase γ IC50
# [7] = purified human mTOR enzyme, DELFIA format
SMILES,IC50 (prostate line LNCap; LNCaP),IC50 (PI3K [1]; [3]),IC50 (PI3K [2]; [4]),IC50 (breast line MDA468),IC50 (Human mTOR (FLAG-TOR)),IC50 (PI3K [1]; [5]),IC50 (PI3K [2]; [6]),IC50 (Human mTOR (FLAG-TOR); [7]),IC50 (prostate line LNCap),IC50 (PI3K [1]),IC50 (PI3K [2])
"CNC(=O)Nc1ccc(-c2nc(N3CC4CCC(C3)O4)c3cnn(C4CCN(C(=O)OC(C)(C)C)CC4)c3n2)cc1 [Example 8, tert-butyl 4-[6-{4-[(methylcarbamoyl)amino]phenyl}-4-(8-oxa-3-azabicyclo[3.2.1]oct-3-yl)-1H-pyrazolo[3,4-d]pyrimidin-1-yl]piperidine-1-carboxylate]",< 27 nM,1480 nM,> 10000 nM,180 nM,0.28 nM,,,,,,
"O=C(Nc1ccc(OCCO)cc1)Nc1ccc(-c2nc(N3CC4CCC(C3)O4)c3cnn(CC(F)(F)F)c3n2)cc1 [Example 263, 1-[4-(2-hydroxyethoxy)phenyl]-3-{4-[4-(8-oxa-3-azabicyclo[3.2.1]oct-3-yl)-1-(2,2,2-trifluoroethyl)-1H-pyrazolo[3,4-d]pyrimidin-6-yl]phenyl}urea]",< 1 nM,147 nM,10400 nM,5 nM,0.215 nM,,,,,,
"CS(=O)(=O)N1CCN(Cc2cc3nc(-c4ccc(NC(=O)Nc5ccncc5)cc4)nc(N4CC5CCC(C4)O5)c3s2)CC1 [Example 434, 1-{4-[6-{[4-(methylsulfonyl)piperazin-1-yl]methyl}-4-(8-oxa-3-azabicyclo[3.2.1]oct-3-yl)thieno[3,2-d]pyrimidin-2-yl]phenyl}-3-pyridin-4-ylurea]",120 nM,,,180 nM,,8 nM,330 nM,0.445 nM,,,
"O=C(NCCF)Nc1ccc(-c2nc(N3CC4CCC(C3)O4)c3cnn(C4CCN(Cc5cccnc5)CC4)c3n2)cc1 [Example 16, 1-(2-fluoroethyl)-3-(4-{4-(8-oxa-3-azabicyclo[3.2.1]oct-3-yl)-1-[1-(pyridin-3-ylmethyl)piperidin-4-yl]-1H-pyrazolo[3,4-d]pyrimidin-6-yl}phenyl)urea]",6 nM,2630 nM,> 10000 nM,80 nM,0.5 nM,,,,,,
"O=C1CCC(n2ncc3c(N4CC5CCC(C4)O5)nc(-c4ccc(NC(=O)NC5CC5)cc4)nc32)CC1 [Example 401, 1-cyclopropyl-3-{4-[4-(8-oxa-3-azabicyclo[3.2.1]oct-3-yl)-1-(4-oxocyclohexyl)-1H-pyrazolo[3,4-d]pyrimidin-6-yl]phenyl}urea]",1 nM,,,10 nM,,2110 nM,> 10000 nM,0.445 nM,,,
"O=C(Nc1ccc(-c2nc(N3CC4CCC(C3)O4)c3cnn(C4CCC(N5CCCC5)CC4)c3n2)cc1)Nc1cccnc1 (stereo not shown) [Example 332, 1-{4-[4-(8-oxa-3-azabicyclo[3.2.1]oct-3-yl)-1-(4-pyrrolidin-1-ylcyclohexyl)-1H-pyrazolo[3,4-d]pyrimidin-6-yl]phenyl}-3-pyridin-3-ylurea]",370 nM,,,900 nM,,351 nM,2760 nM,2.45 nM,,,
"CN1CCN(c2ccc(NC(=O)Nc3ccc(-c4nc(N5CC6CCC(C5)O6)c5cnn(C6CCC7(CCCO7)CC6)c5n4)cc3)cc2)CC1 (single isomer, unassigned) [Example 313, 1-[4-(4-methylpiperazin-1-yl)phenyl]-3-(4-{4-(8-oxa-3-azabicyclo[3.2.1]oct-3-yl)-1-[(5r,8r)-1-oxaspiro[4.5]dec-8-yl]-1H-pyrazolo[3,4-d]pyrimidin-6-yl}phenyl)urea]",1 nM,,,15 nM,,581 nM,1450 nM,0.365 nM,,,
"CNC(=O)Nc1ccc(-c2nc(N3CC4CCC(C3)O4)c3cnn(C4CCN(CC(F)(F)F)CC4)c3n2)cc1 [Example 26, 1-methyl-3-(4-{4-(8-oxa-3-azabicyclo[3.2.1]oct-3-yl)-1-[1-(2,2,2-trifluoroethyl)piperidin-4-yl]-1H-pyrazolo[3,4-d]pyrimidin-6-yl}phenyl)urea]",27 nM,1280 nM,> 10000 nM,190 nM,1.1 nM,,,,,,
"CN(C)c1cccc(OC(=O)Nc2ccc(-c3nc(N4CC5CCC(C4)O5)c4cnn(CC(F)(F)F)c4n3)cc2)c1 [Example 256, 3-(dimethylamino)phenyl {4-[4-(8-oxa-3-azabicyclo[3.2.1]oct-3-yl)-1-(2,2,2-trifluoroethyl)-1H-pyrazolo[3,4-d]pyrimidin-6-yl]phenyl}carbamate]",,,,18000 nM,195 nM,,,,3500 nM,> 10000 nM,> 10000 nM
"CNC(=O)Nc1ccc(-c2nc(N3C4CCC3COC4)c3cnn(CC(F)(F)F)c3n2)cc1 [Example 267, 1-methyl-3-{4-[4-(3-oxa-8-azabicyclo[3.2.1]oct-8-yl)-1-(2,2,2-trifluoroethyl)-1H-pyrazolo[3,4-d]pyrimidin-6-yl]phenyl}urea]",9 nM,1370 nM,9000 nM,40 nM,0.565 nM,,,,,,
"CC(C)C(=O)N1CCC(n2ncc3c(N4CC5CCC(C4)O5)nc(-c4ccc(NC(=O)Nc5cccnc5)cc4)nc32)CC1 [Example 88, 1-{4-[1-(1-isobutyrylpiperidin-4-yl)-4-(8-oxa-3-azabicyclo[3.2.1]oct-3-yl)-1H-pyrazolo[3,4-d]pyrimidin-6-yl]phenyl}-3-pyridin-3-ylurea]",60 nM,454 nM,3820 nM,130 nM,0.3 nM,,,,,,
"CCn1nc(-c2cccnc2)c2c(N3CC4CCC(C3)O4)nc(-c3ccc(NC(=O)NC)cc3)nc21 [Example 349, 1-{4-[1-ethyl-4-(8-oxa-3-azabicyclo[3.2.1]oct-3-yl)-3-pyridin-3-yl-1H-pyrazolo[3,4-d]pyrimidin-6-yl]phenyl}-3-methylurea]",210 nM,,,800 nM,,596 nM,4960 nM,8.9 nM,,,
"CCNC(=O)Nc1ccc(-c2nc(N3CC4CCC(C3)O4)c3cnn(CCF)c3n2)cc1 [Example 247, 1-ethyl-3-{4-[1-(2-fluoroethyl)-4-(8-oxa-3-azabicyclo[3.2.1]oct-3-yl)-1H-pyrazolo[3,4-d]pyrimidin-6-yl]phenyl}urea]",90 nM,1360 nM,> 10000 nM,400 nM,0.7 nM,,,,,,
"CCn1ncc2c(N3CC4CCC(C3)O4)nc(-c3ccc(NC(=O)Nc4ccc(N5CCN(C)CC5)cc4)cc3)nc21 [Example 180, 1-{4-[1-ethyl-4-(8-oxa-3-azabicyclo[3.2.1]oct-3-yl)-1H-pyrazolo[3,4-d]pyrimidin-6-yl]phenyl}-3-[4-(4-methylpiperazin-1-yl)phenyl]urea]",< 1 nM,56 nM,1340 nM,< 1 nM,0.275 nM,,,,,,
"COC(=O)N1CCC(n2ncc3c(N4C5CCC4COC5)nc(-c4ccc(NC(=O)Nc5ccc(N6CCNCC6)cc5)cc4)nc32)CC1 [Example 364, methyl 4-[4-(3-oxa-8-azabicyclo[3.2.1]oct-8-yl)-6-(4-{[(4-piperazin-1-ylphenyl)carbamoyl]amino}phenyl)-1H-pyrazolo[3,4-d]pyrimidin-1-yl]piperidine-1-carboxylate]",1 nM,,,4 nM,,1230 nM,947 nM,0.44 nM,,,
"CCn1ncc2c(N3CC4CCC(C3)O4)nc(-c3ccc(NC(=O)Nc4ccc(OC)cc4)cc3)nc21 [Example 187, 1-{4-[1-ethyl-4-(8-oxa-3-azabicyclo[3.2.1]oct-3-yl)-1H-pyrazolo[3,4-d]pyrimidin-6-yl]phenyl}-3-(4-methoxyphenyl)urea]",1 nM,199 nM,3800 nM,19 nM,0.405 nM,,,,,,
"CCn1ncc2c(N3CC4CCC(C3)O4)nc(-c3ccc(NC(=O)Nc4cccnc4)cc3)nc21 [Example 47, 1-{4-[1-ethyl-4-(8-oxa-3-azabicyclo[3.2.1]oct-3-yl)-1H-pyrazolo[3,4-d]pyrimidin-6-yl]phenyl}-3-pyridin-3-ylurea]",< 0.8 nM,160 nM,2720 nM,1.2 nM,0.11 nM,,,,,,
"CCNC(=O)Nc1ccc(-c2nc(N3CC4CCC(C3)O4)c3cnn(CCO)c3n2)cc1 [Example 194, 1-ethyl-3-{4-[1-(2-hydroxyethyl)-4-(8-oxa-3-azabicyclo[3.2.1]oct-3-yl)-1H-pyrazolo[3,4-d]pyrimidin-6-yl]phenyl}urea]",280 nM,1500 nM,> 10000 nM,800 nM,2.7 nM,,,,,,
"CNC(=O)Nc1ccc(-c2nc(N3CC4CCC(C3)O4)c3cnn(CCC#N)c3n2)cc1 [Example 214, 1-{4-[1-(2-cyanoethyl)-4-(8-oxa-3-azabicyclo[3.2.1]oct-3-yl)-1H-pyrazolo[3,4-d]pyrimidin-6-yl]phenyl}-3-methylurea]",210 nM,726 nM,> 10000 nM,570 nM,1.5 nM,,,,,,
"Cn1ncc2c(N3CC4CCC(C3)O4)nc(-c3ccc(NC(=O)Nc4ccc(CCO)cc4)cc3)nc21 [Example 232, 1-[4-(2-hydroxyethyl)phenyl]-3-{4-[1-methyl-4-(8-oxa-3-azabicyclo[3.2.1]oct-3-yl)-1H-pyrazolo[3,4-d]pyrimidin-6-yl]phenyl}urea]",< 1 nM,60 nM,524 nM,2 nM,0.105 nM,,,,,,
